This is an account of results in patent US9458135B2, “Dihydroquinoline-2-one derivatives” (Hoffmann-La Roche Inc., priority 2014, dated 2016).

One assay addresses human CYP11B1 (Homo sapiens (Human), UniProt P15538). Kind of assay: G-402 cellular enzyme assay, human CYP11B1 (cortisol release, HTRF). The class given is cell-based. Particulars: G-402 cells expressing human CYP11B1; 1 μM Deoxycortisol. The source says:
(§1) Herein we identified the use of the G-402 cell line as a host cell to ectopically express (transiently or stably) enzymes of the CYP11 family. Specifically we developed stable G-402 cells expressing ectopically human CYP11B1, human CYP11B2, human CYP11A1, cynmolgus CYP11B1 or cynomolgus CYP11B2 enzyme activity. Importantly the identified cell line G-402 expresses co-factors (adrenodoxin and adrenodoxin reductase) important for the activity of the CYP11 family and no relevant enzyme activity of the CYP11 family (in comparison to H295R cells) was detected in these cells. Therefore the G-402 cell line is uniquely suited as a host cell for the ectopic expression of enzymes from the CYP11 family.
(§2) The expression plasmids contains the ORF for either huma/cyno CYP11B1 or CYP11B2 under the control of a suitable promoter (CMV-promoter) and a suitable resistance marker (neomycin). Using standard techniques the expression plasmid is transfected into G-402 cells and these cells are then selected for expressing the given resistance markers. Individual cell-clones are then selected and assessed for displaying the desired enzymatic activity using 11-Deoxycorticosterone (Cyp11B2) or 11-Deoxycortisol (Cyp11B1) as a substrate.
(§3) G-402 cells expressing CYP11 constructs were established as described above and maintained in McCoy's 5a Medium Modified, ATCC Catalog No. 30-2007 containing 10% FCS and 400 μg/ml G418 (Geneticin) at 37° C. under an atmosphere of 5% CO2/95% air. Cellular enzyme assays were performed in DMEM/F12 medium containing 2.5% charcoal treated FCS and appropriate concentration of substrate (0.3-10 uM 11-Deoxycorticosterone, 11-Deoxycortisol or Corticosterone). For assaying enzymatic activity, cells were plated onto 96 well plates and incubated for 16 h. An aliquot of the supernatant is then transferred and analyzed for the concentration of the expected product (Aldosterone for CYP11B2; Cortisol for CYP11B1). The concentrations of these steroids can be determined using HTRF assays from CisBio analyzing either Aldosterone or Cortisol.
(§4) Inhibition of the release of produced steroids can be used as a measure of the respective enzyme inhibition by test compounds added during the cellular enzyme assay. The dose dependent inhibition of enzymatic activity by a compound is calculated by means of plotting added inhibitor concentrations (x-axes) vs. measured steroid/product level (y-axes). The inhibition is then calculated by fitting the following 4-parameter sigmoidal function (Morgan-Mercer-Flodin (MMF) model) to the raw data points using the least squares method:
(§5) [formula] wherein, A is the maximum y value, B is the EC50 factor determined using XLFit, C is the minimum y value and D is the slope value.
(§6) EC50 values for compounds claimed herein were tested with the G402-based assay system described. Cyp11B2 enzyme activity was tested in presence of 1 μM Deoxycorticosterone and variable amounts of inhibitors; Cyp11B1 enzyme activity was tested in presence of 1 μM Deoxycortisol and variable amounts of inhibitors.
(In general: Time-resolved FRET reads energy transfer from a long-lived donor to a nearby acceptor.)

The target of a further assay is human CYP11B2 (Homo sapiens (Human), UniProt P19099). The assay is described as follows: G-402 cellular enzyme assay, human CYP11B2 (aldosterone release, HTRF). The class given is cell-based. The conditions noted are these: G-402 cells expressing human CYP11B2; 1 μM Deoxycorticosterone.
Source text: as §1, §2, §3, §4, §5, §6

Sequence of human CYP11B1 (P15538 25-503): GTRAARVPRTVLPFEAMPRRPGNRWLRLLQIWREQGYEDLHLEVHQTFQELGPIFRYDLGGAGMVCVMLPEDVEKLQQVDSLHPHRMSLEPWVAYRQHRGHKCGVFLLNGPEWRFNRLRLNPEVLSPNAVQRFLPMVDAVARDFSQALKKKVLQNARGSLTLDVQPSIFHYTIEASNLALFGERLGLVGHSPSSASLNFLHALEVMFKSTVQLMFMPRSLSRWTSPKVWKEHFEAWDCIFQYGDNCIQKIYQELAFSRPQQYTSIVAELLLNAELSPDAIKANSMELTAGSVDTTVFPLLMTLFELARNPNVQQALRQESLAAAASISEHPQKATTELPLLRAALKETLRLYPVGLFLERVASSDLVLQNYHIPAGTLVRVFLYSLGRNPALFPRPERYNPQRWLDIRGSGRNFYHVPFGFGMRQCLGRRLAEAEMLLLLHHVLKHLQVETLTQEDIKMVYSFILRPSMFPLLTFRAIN
Sequence of human CYP11B2 (P19099 25-503): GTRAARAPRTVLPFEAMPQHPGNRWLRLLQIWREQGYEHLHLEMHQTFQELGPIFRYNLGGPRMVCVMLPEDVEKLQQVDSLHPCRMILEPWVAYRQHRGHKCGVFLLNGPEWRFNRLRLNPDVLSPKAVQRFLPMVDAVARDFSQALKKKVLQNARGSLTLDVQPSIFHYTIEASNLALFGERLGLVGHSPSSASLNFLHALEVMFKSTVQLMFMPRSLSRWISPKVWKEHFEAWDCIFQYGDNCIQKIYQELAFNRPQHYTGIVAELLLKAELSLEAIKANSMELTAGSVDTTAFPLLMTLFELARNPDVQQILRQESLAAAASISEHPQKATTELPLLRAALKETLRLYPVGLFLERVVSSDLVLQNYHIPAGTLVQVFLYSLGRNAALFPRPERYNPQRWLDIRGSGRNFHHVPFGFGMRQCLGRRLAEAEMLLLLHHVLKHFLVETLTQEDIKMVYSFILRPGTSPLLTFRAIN

The EC50 is the concentration at which the effect is half-maximal. The low end stands for an effect from little substance, the high end for a need for much substance. On to `Cc1cccc(OCc2cncc(-c3cc4c(cc3F)N(C)C(=O)CC4)c2C)n1` [Example 24, 7-Fluoro-1-methyl-6-[4-methyl-5-(6-methyl-pyridin-2-yloxymethyl)-pyridin-3-yl]-3,4-dihydro-1H-quinolin-2-one], for which the EC50 on human CYP11B1 came out at 105 nM; at human CYP11B2, 0.7 nM.

For `CN1C(=O)CCc2cc(-c3cncc(COc4ccc(F)cn4)c3)ccc21` [Example 2, 6-[5-(5-Fluoro-pyridin-2-yloxymethyl)-pyridin-3-yl]-1-methyl-3,4-dihydro-1H-quinolin-2-one], the EC50 was found to be 6.3 nM on human CYP11B1 and 0.2 nM on human CYP11B2.

As to `Cc1cccc(OCc2cncc(-c3cc4c(cc3F)N(C)C(=O)CC4)c2)n1` [Example 22, 7-Fluoro-1-methyl-6-[5-(6-methyl-pyridin-2-yloxymethyl)-pyridin-3-yl]-3,4-dihydro-1H-quinolin-2-one], the half-maximal effective concentration (EC50) on human CYP11B1 was determined as 216 nM; at human CYP11B2, 2 nM.

As for `CN1C(=O)CCc2cc(-c3cncc(COc4cccc(Cl)n4)c3)ccc21` [Example 1, 6-[5-(6-Chloro-pyridin-2-yloxymethyl)-pyridin-3-yl]-1-methyl-3,4-dihydro-1H-quinolin-2-one], the EC50 at human CYP11B1 was 9.1 nM; on human CYP11B2, 0.2 nM.

Consider `Cc1c(COc2cccc(Cl)n2)cncc1-c1cc2c(cc1F)N(C)C(=O)CC2` [Example 25, 6-[5-(6-Chloro-pyridin-2-yloxymethyl)-4-methyl-pyridin-3-yl]-7-fluoro-1-methyl-3,4-dihydro-1H-quinolin-2-one], for which the concentration giving a half-maximal response (EC50) amounted to 116 nM at human CYP11B1 and 1.3 nM at human CYP11B2.

In the case of `CN1C(=O)CCc2cc(-c3cncc(COc4ncccn4)c3)ccc21` [Example 12, 1-Methyl-6-[5-(pyrimidin-2-yloxymethyl)-pyridin-3-yl]-3,4-dihydro-1H-quinolin-2-one], the EC50 turned out to be 101 nM on human CYP11B1 and 3.6 nM at human CYP11B2.

As to `Cc1c(COc2ncccc2F)cncc1-c1cc2c(cc1F)N(C)C(=O)CC2` [Example 26, 7-Fluoro-6-[5-(3-fluoro-pyridin-2-yloxymethyl)-4-methyl-pyridin-3-yl]-1-methyl-3,4-dihydro-1H-quinolin-2-one], the figures for the 50% effective concentration (EC50) at human CYP11B1 and at human CYP11B2 were 866 nM and 5 nM, respectively.

Turning to `CN1C(=O)CCc2cc(-c3cncc(COc4cccc(F)n4)c3)ccc21` [Example 18, 6-[5-(6-Fluoro-pyridin-2-yloxymethyl)-pyridin-3-yl]-1-methyl-3,4-dihydro-1H-quinolin-2-one], the EC50 on human CYP11B1 came out at 7.5 nM; at human CYP11B2, 0.3 nM.

As for `CN1C(=O)CCc2cc(-c3cncc(COc4ncccc4F)c3)c(F)cc21` [Example 19, 7-Fluoro-6-[5-(3-fluoro-pyridin-2-yloxymethyl)-pyridin-3-yl]-1-methyl-3,4-dihydro-1H-quinolin-2-one], the 50% effective concentration (EC50) is 997 nM at human CYP11B1 and 14.1 nM on human CYP11B2.

For the molecule `CN1C(=O)CCc2cc(-c3cncc(COc4cnc(Cl)nc4)c3)ccc21` [Example 11, 6-[5-(2-Chloro-pyrimidin-5-yloxymethyl)-pyridin-3-yl]-1-methyl-3,4-dihydro-1H-quinolin-2-one], the concentration for a half-maximal effect (EC50) at human CYP11B1 was found to be 0.8 nM; at human CYP11B2 it was 0.1 nM.

Consider `Cc1cccc(NC(=O)Cc2cncc(-c3ccc4c(c3)CCC(=O)N4C)c2)n1` [Example 28, 2-[5-(1-Methyl-2-oxo-1,2,3,4-tetrahydro-quinolin-6-yl)-pyridin-3-yl]-N-(6-methyl-pyridin-2-yl)-acetamide], for which the half-maximal effective concentration (EC50) at human CYP11B1 was determined as 14.5 nM; at human CYP11B2, 2.2 nM.

Turning to `CN1C(=O)CCc2cc(-c3cncc(CSc4ncccc4Cl)c3)ccc21` [Example 16, 6-[5-(3-Chloro-pyridin-2-ylsulfanylmethyl)-pyridin-3-yl]-1-methyl-3,4-dihydro-1H-quinolin-2-one], the EC50 on human CYP11B1 came to 45.7 nM; at human CYP11B2 it was 1.4 nM.

Turning to `Cc1ccnc(OCc2cncc(-c3ccc4c(c3)CCC(=O)N4C)c2)c1` [Example 5, 1-Methyl-6-[5-(4-methyl-pyridin-2-yloxymethyl)-pyridin-3-yl]-3,4-dihydro-1H-quinolin-2-one], the concentration for a half-maximal effect (EC50) on human CYP11B1 stood at 1.7 nM; at human CYP11B2, 0.1 nM.

For the molecule `CN1C(=O)CCc2cc(-c3cncc(COc4ncccc4C(F)(F)F)c3)ccc21` [Example 8, 1-Methyl-6-[5-(3-trifluoromethyl-pyridin-2-yloxymethyl)-pyridin-3-yl]-3,4-dihydro-1H-quinolin-2-one], the values for the concentration for a half-maximal effect (EC50) at human CYP11B1 and on human CYP11B2 were 72.8 nM and 2.3 nM, respectively.

As for `CN1C(=O)CCc2cc(-c3cncc(COc4ccccn4)c3)ccc21` [Example 7, 1-Methyl-6-[5-(pyridin-2-yloxymethyl)-pyridin-3-yl]-3,4-dihydro-1H-quinolin-2-one], the EC50 worked out at 8.7 nM on human CYP11B1 and 0.2 nM at human CYP11B2.

Turning to `Cc1cccc(SCc2cncc(-c3ccc4c(c3)CCC(=O)N4C)c2)n1` [Example 14, 1-Methyl-6-[5-(6-methyl-pyridin-2-ylsulfanylmethyl)-pyridin-3-yl]-3,4-dihydro-1H-quinolin-2-one], the EC50 on human CYP11B1 was 0.1 nM; at human CYP11B2 it was 0.012 nM.

Turning to `CN1C(=O)CCc2cc(-c3cncc(COc4ccc(Cl)cn4)c3)c(F)cc21` [Example 20, 6-[5-(5-Chloro-pyridin-2-yloxymethyl)-pyridin-3-yl]-7-fluoro-1-methyl-3,4-dihydro-1H-quinolin-2-one], the results for the half-maximal effective concentration (EC50) at human CYP11B1 and at human CYP11B2 were 1.6 nM and 0.1 nM, respectively.

As to `CN1C(=O)CCc2cc(-c3cncc(COc4ccnc(C(F)(F)F)n4)c3)ccc21` [Example 10, 1-Methyl-6-[5-(2-trifluoromethyl-pyrimidin-4-yloxymethyl)-pyridin-3-yl]-3,4-dihydro-1H-quinolin-2-one], the 50% effective concentration (EC50) on human CYP11B1 amounted to 12.3 nM; at human CYP11B2, 0.3 nM.

Regarding `Cc1nccc(OCc2cncc(-c3ccc4c(c3)CCC(=O)N4C)c2)n1` [Example 9, 1-Methyl-6-[5-(2-methyl-pyrimidin-4-yloxymethyl)-pyridin-3-yl]-3,4-dihydro-1H-quinolin-2-one], the EC50 at human CYP11B1 is 4.2 nM; on human CYP11B2 it was 0.1 nM.

Turning to `Cc1ccnc(OCc2cncc(-c3cc4c(cc3F)N(C)C(=O)CC4)c2)c1` [Example 23, 7-Fluoro-1-methyl-6-[5-(4-methyl-pyridin-2-yloxymethyl)-pyridin-3-yl]-3,4-dihydro-1H-quinolin-2-one], the concentration for a half-maximal effect (EC50) stood at 4.1 nM at human CYP11B1 and 0.1 nM at human CYP11B2.

As to `CN1C(=O)CCc2cc(-c3cncc(COc4ccc(Cl)cn4)c3)ccc21` [Example 6, 6-[5-(5-Chloro-pyridin-2-yloxymethyl)-pyridin-3-yl]-1-methyl-3,4-dihydro-1H-quinolin-2-one], the EC50 on human CYP11B1 was determined as 1.9 nM; on human CYP11B2 it was 0.1 nM.

For `CN1C(=O)CCc2cc(-c3cncc(COc4cccc(Cl)n4)c3)c(F)cc21` [Example 21, 6-[5-(6-Chloro-pyridin-2-yloxymethyl)-pyridin-3-yl]-7-fluoro-1-methyl-3,4-dihydro-1H-quinolin-2-one], the values for the EC50 on human CYP11B1 and at human CYP11B2 were 16.3 nM and 0.3 nM, respectively.

`CN1C(=O)CCc2cc(-c3cncc(COc4cc(C#N)ccn4)c3)ccc21` [Example 17, 2-[5-(1-Methyl-2-oxo-1,2,3,4-tetrahydro-quinolin-6-yl)-pyridin-3-ylmethoxy]-isonicotinonitrile]: the EC50 on human CYP11B1 is 0.9 nM; at human CYP11B2, 0.2 nM.
